Assay results as given in PMC12142043, “Cell-based high-content approach for SARS-CoV-2 neutralization identifies unique monoclonal antibodies and PI3K pathway inhibitors” (Frontiers in Cell and Developmental Biology, 2025).
Read-outs that look alike come from different tables or passages of the source.

Tested on: SARS-CoV-2 (USA-WA1/2020) in Calu-3 cells
Type: cell-based
[1] = high dose (10 µM), Calu-3, 48 h
[2] = low dose (100 nM), Calu-3, 48 h

SMILES	dsRNA signal, AU High	dsRNA signal, AU Low	dsRNA signal, AU High [1]	dsRNA signal, AU Low [2]
FC(F)(F)c1ccc(/C=C/c2nc(COc3ccc(CCCCn4ccnn4)cc3)co2)cc1 [Mubritinib (TAK 165)]	19342.6	48533.2	–	–
CC(=O)NCCc1c[nH]c2ccc(O)cc12 [N-Acetylserotonin]	–	–	219.3 AU	53222.8 AU
O=[N+]([O-])c1ccc(Sc2cccc[n+]2[O-])c2nonc12 [NSC228155]	–	–	18547.9 AU	54998.4 AU
CCN(CC)CCCC(C)Nc1nc(C)cc(Nc2ccc3nc(C)cc(N)c3c2)n1 (stereo not shown) [NSC 23766]	–	–	10192.1 AU	15408.3 AU
Oc1cc(CNC(=S)/C=C/c2cc(O)c(O)c(Br)c2)cc(O)c1O [NT157]	–	–	7372.8 AU	11852.6 AU
O=C(Nc1nc2ccc(NC(=O)C34CC5CC(CC(C5)C3)C4)cc2s1)c1ccccc1 [NVP 231]	–	–	1973.6 AU	14037.2 AU
Nc1ncnc2c1c(-c1cccc(OCc3ccccc3)c1)cn2[C@H]1C[C@@H](CN2CCC2)C1 [NVP-AEW541]	–	–	1274.0 AU	19640.6 AU
Cl.Nc1cc(C(F)(F)F)c(-c2cc(N3CCOCC3)nc(N3CCOCC3)n2)cn1 [NVP-BKM120 Hydrochloride]	–	–	0.0 AU	56514.5 AU
Fc1cc(-c2cccc3ncc(-c4cnn(C5CCNCC5)c4)nc23)cc(F)c1CN1CCOCC1 [NVP-BSK805 2HCl]	–	–	1810.2 AU	2038.5 AU
Cn1cc(-c2ccc3ncc(Cc4ccc5ncccc5c4)n3n2)cn1 [NVP-BVU972]	–	–	9035.4 AU	52705.1 AU
CS(=O)(=O)N1CCC(NC(=O)c2[nH]ncc2NC(=O)c2c(Cl)cccc2Cl)CC1 [NVP-LCQ195]	–	–	6040.0 AU	35350.1 AU
CN1C(=O)C(Cc2c[nH]c3ccccc23)NC1=S (stereo not shown) [Necrostatin-1]	–	–	12590.5 AU	10276.4 AU
CCOc1cc2ncc(C#N)c(Nc3ccc(OCc4ccccn4)c(Cl)c3)c2cc1NC(=O)/C=C/CN(C)C [Neratinib (HKI-272)]	–	–	1101.0 AU	11881.7 AU
Cc1cn(-c2cc(NC(=O)c3ccc(C)c(Nc4nccc(-c5cccnc5)n4)c3)cc(C(F)(F)F)c2)cn1.Cl.O [Nilotinib monohydrochloride monohydrate]	–	–	2759.7 AU	14574.2 AU
Cc1cn(-c2cc(NC(=O)c3ccc(C)c(Nc4nccc(-c5cccnc5)n4)c3)cc(C(F)(F)F)c2)cn1 [Nilotinib(AMN-107)]	–	–	28653.4 AU	33622.0 AU
Nc1nc(N)c(N=O)c(OCC2CCCCC2)n1 [Nu 6027]	–	–	2596.9 AU	10731.2 AU
NCC(=O)Nc1ccc(-n2nc(C(F)(F)F)cc2-c2ccc3c(ccc4ccccc43)c2)cc1 [OSU-03012 (AR-12)]	–	–	17565.3 AU	17813.3 AU
CC1(C)OC(=O)C=C[C@]2(C)[C@H]3CC[C@@]4(C)[C@H](c5ccoc5)OC(=O)[C@H]5O[C@]54[C@]3(C)C(=O)C[C@@H]12 [Obacunone]	–	–	22534.9 AU	63087.7 AU

SMILES	dsRNA signal, AU High	dsRNA signal, AU Low	dsRNA signal, AU High [1]	dsRNA signal, AU Low [2]
C=C1C(=O)[C@]23[C@H](O)[C@H]1CC[C@H]2[C@@]12CO[C@]3(O)[C@@H](O)[C@@H]1C(C)(C)CC[C@@H]2O [Oridonin]	–	–	6061.2 AU	25375.1 AU
COC(=O)Nc1nc2ccc([S+]([O-])c3ccccc3)cc2[nH]1 (stereo not shown) [Oxfendazole]	–	–	20012.9 AU	47370.5 AU
COc1cccc(-c2cc(=O)c3ccccc3o2)c1N [PD98059]	–	–	33353.3 AU	27955.5 AU
COc1cc2ncnc(Nc3cccc(Br)c3)c2cc1OC.Cl [PD153035 hydrochloride]	–	–	1669.4 AU	28866.3 AU
O=C(NOCC1CC1)c1ccc(F)c(F)c1Nc1ccc(I)cc1Cl [PD184352 (CI-1040)]	–	–	0.0 AU	41067.4 AU
O=C(NOCC(O)CO)c1cc(Br)c(F)c(F)c1Nc1ccc(I)cc1F (stereo not shown) [PD318088]	–	–	9157.7 AU	11553.5 AU
O=C(NOC[C@H](O)CO)c1ccc(F)c(F)c1Nc1ccc(I)cc1F [PD0325901]	–	–	5022.8 AU	48059.9 AU
O=[N+]([O-])c1ccc(-c2nc(-c3ccncc3)c(-c3ccc(F)cc3)[nH]2)cc1 [PD 169316]	–	–	4123.0 AU	13218.6 AU
CCN(CC)CCCCNc1ncc2cc(-c3cc(OC)cc(OC)c3)c(NC(=O)NC(C)(C)C)nc2n1 [PD 173074]	–	–	6568.6 AU	3359.6 AU
Cc1cc(CS(=O)(=O)c2ccccc2)cc(OCc2ccc(CN3CCC[C@@H]3CO)cc2)c1 [PF-543]	–	–	28127.6 AU	66805.4 AU
Cn1cc(-c2[nH]c3cc(NC(=O)[C@H](N)C4CCCCC4)cc4c3c2C=NNC4=O)cn1 [PF-477736]	–	–	45938.3 AU	24364.8 AU
CN(c1ncccc1CNc1nc(Nc2ccc3c(c2)CC(=O)N3)ncc1C(F)(F)F)S(C)(=O)=O [PF-562271]	–	–	0.0 AU	690.0 AU
Nc1nccc(-c2c(-c3ccc(F)cc3)ncn2C2CCCCC2)n1 [PF-670462]	–	–	1350.7 AU	18716.0 AU
OCCn1cc(-c2cnc3nnn(Cc4ccc5ncccc5c4)c3n2)cn1 [PF-04217903]	–	–	9610.7 AU	2049.9 AU
N#Cc1cccc(-c2c[nH]c3ncnc(N4CCOCC4)c23)c1 [PF-06447475]	–	–	53174.2 AU	40604.3 AU
CNC(=O)c1ccc(C)c(-n2c(C)cc(OCc3ccc(F)cc3F)c(Br)c2=O)c1 [PH-797804]	–	–	733.9 AU	57938.0 AU
Cc1[nH]c(/C=C2\C(=O)Nc3ccc(S(=O)(=O)Cc4c(Cl)cccc4Cl)cc32)c(C)c1C(=O)N1CCC[C@@H]1CN1CCCC1 [PHA-665752]	–	–	34815.2 AU	11571.8 AU
